Test results published in patent US8546091B2, “AKT phosphorylation at Ser473 as an indicator for taxane-based chemotherapy” (The United States of America, as represented by the …, priority 2009, dated 2013).
Read-outs that look alike come from different tables or passages of the source.

What was measured:
[1] = tested on: node-positive breast cancer; conditions: NSABP B-28, Mamounas et al. 2005; paclitaxel after AC vs AC alone; cited from earlier work
[2] = tested on: node-positive breast cancer; format: in vivo, human
Description: We designed and conducted a study to correlate Akt phosphorylation with clinical outcome through the primary tumor specimens from the National Surgical Adjuvant Breast and Bowel Project B-28 trial. We tested the hypothesis that phosphorylation of Akt at serine 473 (“pAkt”) predicts a benefit for women with node-positive breast cancer from the sequential addition of paclitaxel after adjuvant doxorubicin plus cyclophosphamide chemotherapy.
Eligible patients signed an approved informed consent which includes tissue collection and research use of collected tissue conforming to federal and institutional guidelines. In this study, the biomarker protocol for the evaluation of Akt phosphorylation in association with disease-free survival and overall survival in patients with node-positive breast cancer treated with either adjuvant doxorubicin plus cyclophosphamide only or followed by paclitaxel was approved by the Institutional Review Boards of the National Cancer institute (Bethesda, Md.) and the National Surgical Adjuvant Breast and Bowel Project (Pittsburgh, Pa.).
HER2 status on the microarray sections were determined by the NSABP central pathology laboratory using PathVision fluorescent in situ hybridization (FISH) assay according to the FDA approved protocol per the manufacturer (Vysis, Downers Grove. Ill.). Data were expressed as the number of HER2 genes per chromosome 17 centromere: tumors with a ratio of […] were classified as HER2-positive, and those with a ratio of <2 were defined as HER2-negative. Estrogen receptor status in tissue microarray sections were also determined by the NSABP central pathology laboratory by immunohistochemistry according to the FDA approved protocol provided by DAKO (PharmDx kit; Carpinteria, Calif.). A positive result (tumor cell nuclear staining) for ER is defined as a total score (ranging from 0, 2-8) of ≧3. The total score is the sum of a proportion score from 0 to 5 and an intensity score of 0 to 3.
Sections were incubated with primary antibody in 1 to 100 dilution for 1 hour at room temperature, and binding of the antibody to its antigenic sites was amplified using Vectastain Elite avidin-biotin peroxidase complex kits (Vector Laboratories, Burlingame, Calif.). The antigen-antibody reaction sites were visualized using 3,3-diaminobenzidine for 7 minutes and, subsequently, sections were counterstained with Mayer's hematoxylin. Breast cancer cell line MDA-MB-468 which expresses pAkt, and a breast cancer specimen known to express pAkt were utilized as positive controls. Negative control was performed using isotype immunoglobulins appropriate to the primary antibodies being used (Zymed Laboratories, South San Francisco, Calif.). The immunostained tissue microarray cores with either cytoplasmic or membranous or nuclear signal were analyzed with the assistance of an Automated Cellular Imaging System (DAKO), blinded to all clinical information, after excluding tissue cores with less than 5% of invasive tumor cells present. The staining intensity and percentage of tumor cells on each tissue core was calculated by the digital imaging system. The staining index ranging from 0 to 62.8 reporting levels of Akt phosphorylation at Ser473 was determined by the percentage multiplied by intensity of staining divided by 100 (intensity X percentage/100) in tumor cells, in which the intensity was subtracted from the average tissue readout of three normal tissue cores. These cores serve as the position markers and tissue negative controls for each array slide.

[3] = tested on: cancer cells; conditions: literature (MacKeigan 2002; Asakuma 2003); cited from earlier work
[4] = tested on: Akt phosphorylation at serine 473; conditions: literature (MacKeigan 2002; Asakuma 2003); cited from earlier work

For `CC(=O)O[C@H]1C(=O)[C@@]2(C)[C@H]([C@H](OC(=O)c3ccccc3)[C@]3(O)C[C@H](OC(=O)[C@H](O)[C@@H](NC(=O)c4ccccc4)c4ccccc4)C(C)=C1C3(C)C)[C@]1(OC(C)=O)CO[C@@H]1C[C@@H]2O` [paclitaxel], the “effect on disease-free and overall survival” value [1] is given as “significantly improve disease-free survival but not overall survival”, the “hazard ratio for disease-free survival” value ([2]; 606 patients with pAkt positive cancer, with vs without paclitaxel, FIG. 1B, P=0.027) is given as 0.75 and the “hazard ratio for disease-free survival” value ([2]; 975 patients with pAkt-negative cancer, with vs without paclitaxel, FIG. 1A, P=0.44) is given as 1.08. For the same compound, the “hazard ratio for overall survival” value ([2]; 1581 patients with pAkt measurement, follow-up 9.1 years, 95% CI 0.79-1.15, P=0.63) was 0.96, the “hazard ratio for disease-free survival” value ([2]; 1581 patients with pAkt measurement, follow-up 9.1 years, 95% CI 0.81-1.10, P=0.46) was 0.94 and the “improvement in disease-free survival” value ([2]; entire B-28 population with pAkt-Ser473 measurements, positive or negative, approximate 10 years of follow-up) was 6%. The “hazard ratio for overall survival” value ([2]; entire B-28 population, approximate 10 years of follow-up, addition of paclitaxel to AC vs AC, 95% CI 0.81-1.06, P=0.25) was 0.92, the “hazard ratio for disease-free survival” value ([2]; entire B-28 population, approximate 10 years of follow-up, sequential addition of paclitaxel to AC vs AC, 95% CI 0.79 to 0.99, P=0.034) was 0.89 and the “adjusted hazard ratio for disease-free survival” value ([2]; pAkt negative cancer, multivariate proportional-hazards model, FIG. 1C, P=0.81) was 1.02. The “adjusted hazard ratio for disease-free survival” value ([2]; pAkt positive breast cancer, multivariate proportional-hazards model, FIG. 1C, P=0.02) was 0.74, the “hazard ratio for overall survival” value ([2]; pAkt-negative cancer, P=0.74) was 1.04 and the “adjusted hazard ratio for disease-free survival” value ([2]; pAkt-negative, HER2-negative tumors, FIG. 3C, P=0.36) was 1.12. The “adjusted hazard ratio for disease-free survival” value ([2]; pAkt-negative, HER2-positive tumors, FIG. 3A, P=0.88) was 0.96, the “adjusted hazard ratio for disease-free survival” value ([2]; pAkt-negative, estrogen-receptor positive tumors, FIG. 2A, P=0.64) was 1.06 and the “adjusted hazard ratio for disease-free survival” value ([2]; pAkt-negative, estrogen-receptor-negative tumors, FIG. 2C, P=0.79) was 1.04. For the same compound, the “improvement in disease-free survival” value ([2]; pAkt-positive breast cancer, sequential addition of paclitaxel) was 26%, the “hazard ratio for overall survival” value ([2]; pAkt-positive cancer, P=0.226) was 0.83 and the “adjusted hazard ratio for disease-free survival” value ([2]; pAkt-positive, HER2-negative tumors, FIG. 3D, P=0.03) was 0.70. The “adjusted hazard ratio for disease-free survival” value ([2]; pAkt-positive, HER2-positive tumors, FIG. 3B, P=0.28) was 0.72, the “adjusted hazard ratio for disease-free survival” value ([2]; pAkt-positive, estrogen receptor-negative tumors, FIG. 2D, P=0.052) was 0.66 and the “adjusted hazard ratio for disease-free survival” value ([2]; pAkt-positive, estrogen receptor-positive tumors, FIG. 2B, P=0.24) was 0.82. For the same compound, the “effect on survival of cancer cells” value [3] was “reduces the survival cancer cells” and the “effect on Akt phosphorylation at serine 473” value [4] was “inhibits Akt phosphorylation at serine 473”.
